Laboratory results: patent US4358607A, “Chloro-substituted benzospiro cyclopropane carboxylic acid” (American Cyanamid Co., priority 1978, dated 1982)

Columns and labels:
Type in all cases: in vivo
[1] = test system: Southern Armyworm [Spodoptera eridania]; assay: Southern Armyworm test; conditions: 2 days
Method: (§1) Southern Armyworm [Spodoptera eridania (Cramer)].
(§2) A sieva lima bean plant with just the primary leaves expanded to 7.6 to 10 cm is dipped for 3 seconds with agitation in a 1000 ppm solution and set in a hood to dry. Following this, one leaf is placed in a 10 cm petri dish which has a moist filter paper in the bottom and 10 third-instar armyworm larvae about 1 cm long. The dish is covered and held at 26.7° C. After 2 days mortality counts and estimates of the amount of feeding are made. Compounds showing partial kill and/or inhibition of feeding are held for an extra day for further observations.
(§3) The rating system employed in these tests is as follows:
(§4) Compounds rated active (8 or 9) are further tested at reduced concentrations in 50% acetone: 50% water.

[2] = test system: Two-Spotted Spider Mite [Tetranychus urticae]; assay: Phosphate-Resistant Strain of Two-Spotted Spider Mite test
Method: Phosphate-Resistant Strain of Two-Spotted Spider Mite [Tetranychus urticae (Koch)].
Sieva lima bean plants, with primary leaves 7.6 to 10 cm long, are infested with about 100 adult mites per leaf 4 hours before use in this test, in order to allow egg-laying before treatment. The infested plants are dipped for 3 seconds with agitation into a 300 ppm solution, and the plants set in the hood to dry. After 2 days at 26.7° C., the adult mite mortality is estimated on one leaf under a 10X stereoscopic microscope. The other leaf is left on the plant an additional 5 days and then examined at 10X power to estimate the kill of eggs and of newly-hatched nymphs, giving a measure of ovicidal and residual action, respectively.
as §3, §4

[3] = test system: Southern Armyworm [Spodoptera eridania]; assay: Southern Armyworm residual activity, 7 days; conditions: 7 days from original treatment
Method: as §1, §2
All compounds showing activity as defined above are retested, using the second leaf on the bean plant, after an interval of 7 days from original treatment, as an assay of residual activity.
The rating system employed in these tests is as follows: […]

[4] = test system: Mexican Bean Beetle (Epilachna varivestis); assay: Mexican Bean Beetle test
From the text: Mexican Bean Beetle (Epilachna varivestis Mulsant)
Sieva lima bean plants (2 per pot) with primary leaves 7.6 to 10 cm long, are dipped in a 300 ppm solution and set in a hood to dry. One leaf is removed from the plant and placed in a 10 cm petri dish containing a moist filter paper on the bottom and 10 last-instar larvae (13 days from hatching).
The day after treatment, another leaf is removed from the plant and fed to the larvae after removing the remains of the original leaf. Two days after treatment, the third leaf is fed to the larvae, this usually being the last needed. The fourth leaf is used on the third day after treatment if the larvae have not finished feeding. The test is now set aside and held until adults have emerged, usually about 9 days after treatment began. After emergence is complete, each dish is examined for dead larvae, pupae or adults; deformed pupae or adults; larval-pupal intermediates or pupal-adult intermediates; or any other interference with normal molting, transformation and emergence of pupae or adults.
as §3, §4

[5] = test system: Malaria Mosquito (Anopheles quadrimaculatus); assay: Malaria Mosquito egg and larvae test
Method: Malaria Mosquito (Anopheles quadrimaculatus say) egg and larvae test. One ml of a 300 ppm solution is pipetted into a 400 ml beaker containing 250 ml of deionized water and stirred with the pipette, giving a concentration of 1.2 ppm. A wax paper ring 0.6 cm wide to fit inside the beaker is floated on the surface of the test solution to keep the eggs from floating up the meniscus curve and drying out on the side of the glass. A spoon made of screen is used to scoop up and transfer about 100 eggs (0-24 hours old) into the test beaker. After two days at 26.7°C. observations of hatching are made. This includes kill of eggs or inhibition of hatch, kill of newly hatched larvae, or delayed hatch. Additional observations are made after another day for the same effects. The rating system employed in these tests is as follows: Compounds rated active (8 or 9) are further tested at reduced concentrations in 50% acetone: 50% water.

[6] = test system: Tobacco Budworm [Heliothis virescens] eggs; assay: Tobacco Budworm egg test; conditions: 300 ppm, 3 days
Method: (§5) Tobacco Budworm [Heliothis virescens (Fabricus)].
(§6) A cotton plant with 2 true leaves expanded is dipped for 3 seconds with agitation in a 300 ppm solution. A 1.25 to 2 cm square of cheesecloth with about 50 to 100 budworm eggs 0-24 hours old is also dipped in the test solution and placed on one leaf to dry. The leaf with the treated budworm eggs is removed from the plant and placed in a 236.6 ml (8-Oz) Dixie cup with a wet 5 cm piece of dental wick and covered with a lid. The other leaf is placed in a similar cup with a wick and a piece of cheesecloth infested with 50-100 newly hatched larvae is added before covering the cup with a lid. After 3 days at 26.7° C., observations of egg hatch are made as well as kill of newly hatched larvae, any inhibition of feeding, or interference of any sort with normal development.
as §3, §4

[7] = test system: Tobacco Budworm [Heliothis virescens] larvae; assay: Tobacco Budworm newly hatched larvae test; conditions: 3 days
Method: as §5, §6, §3, §4

Row | Structure (SMILES) | Insecticidal activity rating, Southern Armyworms ([1]; 10 ppm) | Insecticidal activity rating, Southern Armyworms ([1]; 100 ppm) | Insecticidal activity rating, Southern Armyworms ([1]; 1000 ppm) | Activity rating, Phosphate Resistant Mites ([2]; 10 ppm) | Activity rating, Phosphate Resistant Mites ([2]; 100 ppm) | Activity rating, Phosphate Resistant Mites ([2]; 300 ppm) | Insecticidal activity rating, Southern Armyworms, 7-days [3] | Insecticidal activity rating, Mexican Bean Beetles ([4]; 10 ppm) | Insecticidal activity rating, Mexican Bean Beetles ([4]; 100 ppm) | Insecticidal activity rating, Mexican Bean Beetles ([4]; 300 ppm) | Insecticidal activity rating, Mosquito Larvae ([5]; 0.04 ppm) | Insecticidal activity rating, Mosquito Larvae ([5]; 0.4 ppm) | Insecticidal activity rating, Mosquito Larvae ([5]; 1.2 ppm) | Insecticidal activity rating, Tobacco Budworm Eggs [6] | Insecticidal activity rating, Tobacco Budworm Larvae ([7]; 10 ppm) | Insecticidal activity rating, Tobacco Budworm Larvae ([7]; 100 ppm) | Insecticidal activity rating, Tobacco Budworm Larvae ([7]; 300 ppm)
1 | CC1(C)C(C(=O)OC(C#N)c2cccc(Oc3ccccc3)c2)C12C=C(Cl)c1ccccc12 (centres unmarked) [drawing 11] | 7 (71-85% mortality) | 9 (100% mortality) | 9 (100% mortality) | 0 (0-4% killed or affected) | 5 (51-60% mortality) | 8 (86-95% mortality) | 0 (0-4% killed or affected) | 9 (100% mortality) | 9 (100% mortality) | 9 (100% mortality) | – | – | – | – | – | – | –
2 | CC1(C)C(C(=O)OC(C#N)c2cccc(Oc3ccccc3)c2)C12C=C(Cl)c1ccccc12 (centres unmarked) [drawing 9] | – | – | – | – | – | – | – | – | – | – | 9 (100% mortality) | 9 (100% mortality) | 9 (100% mortality) | 0 (0-4% killed or affected) | 9 (100% mortality) | 9 (100% mortality) | 9 (100% mortality)
